# From article PMC5607459, “Discovery of a Potent Inhibitor Class with High Selectivity toward Clostridial Collagenases” (Journal of the American Chemical Society, 2017)
# Entries after “also recorded” stand apart in the source; their conditions may differ. Read-outs that look alike come from different tables or passages of the source. Non-standard residues stand in square brackets, D forms with d. Residues, ends and D or L forms follow the SMILES beside them. *: point of attachment. Dnp = O=[N+]([O-])c1ccc(*)c([N+](=O)[O-])c1; Mca = COc1ccc2c(CC(=O)*)cc(=O)oc2c1; Dap = NC[C@H](N)C(=O)O
# Experiments:
# ColH-PD [1] = target: T1, ColH-PD (Hathewaya histolytica, UniProt Q46085)
# ColH-PD [2] = target: T1, ColH-PD; test: biochemical
# physchem = conditions: buffer, pH 7.5
# [3] = tested on: MMP-1, -2, -3, -7, -8, and -14; test: Human MMP inhibition assay, statements on the whole panel; type: biochemical; conditions: for inhibition of the tested MMPs: tested at 100 µM
# HEP G2 cells [4] = conditions: human
# LasB = type: biochemical, P. aeruginosa
# ColH-PD [5] = target: T1, ColH-PD; remark: listed apart in the source
# ColH-PD [6] = target: T1, ColH-PD; test: biochemical; type: binding, Clostridium histolyticum
# HEP G2 cells [7] = test: Cytotoxicity assay; conditions: 48 h
# [8] = target: T2, catalytic domain of MMP-2 (Homo sapiens, UniProt P08253); test: Human MMP inhibition assay, MMP-2; type: biochemical; conditions: 100 μM compound
# T2 construct: The catalytic domains of MMP-1, -2, -3, -7, -8 and -14; purchased AnaSpec (Fremont, CA, USA)
# ColQ1-CU = ColQ1-CU (Bacillus cereus, UniProt B9J3S4); test: biochemical; parameters: species or system Bacillus cereus strain Q1; conditions: for remaining activity at 100 µM: read-out: residual activity of ColQ1
# ColG-CU = ColG-CU (Hathewaya histolytica, UniProt Q9X721); test: biochemical; parameters: species or system C. histolyticum; conditions: for remaining activity at 100 µM: read-out: residual activity of ColG
# ColT-PD = ColT-PD (Clostridium tetani, UniProt Q899Y1); test: biochemical; parameters: species or system C. tetani; conditions: for remaining activity at 100 µM: read-out: residual activity of ColT
# [9] = target: catalytic domain of MMP-7 (Homo sapiens, UniProt P09237); test: biochemical
# [10] = target: amine-coupled peptidase domain of ColH (ColH-PD) (Hathewaya histolytica, UniProt Q46085)
# [11] = 10 mM Hepes pH 7.4 (10% methanol) at 22.5°C, experimental time frame
# Sequence of ColQ1-CU (B9J3S4 94-765 limits assumed): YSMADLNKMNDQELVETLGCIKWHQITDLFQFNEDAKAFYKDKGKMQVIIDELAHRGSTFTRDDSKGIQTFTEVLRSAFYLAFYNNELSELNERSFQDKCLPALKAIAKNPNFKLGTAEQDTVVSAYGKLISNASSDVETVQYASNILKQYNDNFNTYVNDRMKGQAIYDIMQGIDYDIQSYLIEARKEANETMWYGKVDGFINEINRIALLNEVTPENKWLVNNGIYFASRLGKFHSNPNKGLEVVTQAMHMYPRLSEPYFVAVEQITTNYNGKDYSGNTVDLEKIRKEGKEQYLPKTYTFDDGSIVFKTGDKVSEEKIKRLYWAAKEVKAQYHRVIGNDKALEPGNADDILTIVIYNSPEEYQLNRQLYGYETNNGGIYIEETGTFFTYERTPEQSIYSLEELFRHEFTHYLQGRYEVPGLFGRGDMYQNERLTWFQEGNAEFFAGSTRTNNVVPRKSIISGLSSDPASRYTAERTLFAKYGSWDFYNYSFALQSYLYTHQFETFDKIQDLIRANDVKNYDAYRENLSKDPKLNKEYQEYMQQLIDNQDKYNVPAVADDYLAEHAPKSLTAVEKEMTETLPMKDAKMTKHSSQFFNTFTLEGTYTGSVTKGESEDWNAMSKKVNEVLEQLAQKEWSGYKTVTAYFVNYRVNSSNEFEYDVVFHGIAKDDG
# Sequence of ColG-CU (Q9X721 111-786): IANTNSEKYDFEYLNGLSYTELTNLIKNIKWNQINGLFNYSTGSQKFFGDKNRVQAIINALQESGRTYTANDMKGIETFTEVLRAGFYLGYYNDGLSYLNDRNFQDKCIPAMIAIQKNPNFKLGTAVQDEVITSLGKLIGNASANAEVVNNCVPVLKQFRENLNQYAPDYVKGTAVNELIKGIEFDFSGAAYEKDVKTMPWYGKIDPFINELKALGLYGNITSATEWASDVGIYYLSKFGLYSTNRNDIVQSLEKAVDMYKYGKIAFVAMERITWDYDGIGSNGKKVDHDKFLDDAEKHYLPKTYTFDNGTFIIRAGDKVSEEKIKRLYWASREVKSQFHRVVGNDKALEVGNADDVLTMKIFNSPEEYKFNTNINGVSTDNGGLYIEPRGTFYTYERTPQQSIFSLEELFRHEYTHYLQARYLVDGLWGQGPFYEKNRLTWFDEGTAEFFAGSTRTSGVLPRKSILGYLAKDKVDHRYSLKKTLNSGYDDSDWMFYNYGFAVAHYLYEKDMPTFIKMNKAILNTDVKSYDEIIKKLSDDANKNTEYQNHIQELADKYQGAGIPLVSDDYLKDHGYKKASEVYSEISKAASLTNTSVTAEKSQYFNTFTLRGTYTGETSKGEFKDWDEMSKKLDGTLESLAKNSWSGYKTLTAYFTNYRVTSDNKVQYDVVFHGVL
# T1 sequence (Q46085 331-721 limits assumed): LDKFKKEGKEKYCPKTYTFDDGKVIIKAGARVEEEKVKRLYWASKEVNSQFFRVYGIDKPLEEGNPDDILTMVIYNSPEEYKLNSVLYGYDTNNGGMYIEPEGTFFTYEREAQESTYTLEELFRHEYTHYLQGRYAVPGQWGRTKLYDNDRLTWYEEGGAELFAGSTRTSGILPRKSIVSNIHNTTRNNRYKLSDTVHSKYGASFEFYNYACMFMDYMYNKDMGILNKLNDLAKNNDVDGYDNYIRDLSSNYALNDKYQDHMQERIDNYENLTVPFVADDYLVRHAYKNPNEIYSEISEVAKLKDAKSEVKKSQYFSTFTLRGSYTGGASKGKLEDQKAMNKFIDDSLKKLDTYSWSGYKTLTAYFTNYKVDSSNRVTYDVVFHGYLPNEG
# Sequence of ColT-PD (Q899Y1 340-731 limits assumed): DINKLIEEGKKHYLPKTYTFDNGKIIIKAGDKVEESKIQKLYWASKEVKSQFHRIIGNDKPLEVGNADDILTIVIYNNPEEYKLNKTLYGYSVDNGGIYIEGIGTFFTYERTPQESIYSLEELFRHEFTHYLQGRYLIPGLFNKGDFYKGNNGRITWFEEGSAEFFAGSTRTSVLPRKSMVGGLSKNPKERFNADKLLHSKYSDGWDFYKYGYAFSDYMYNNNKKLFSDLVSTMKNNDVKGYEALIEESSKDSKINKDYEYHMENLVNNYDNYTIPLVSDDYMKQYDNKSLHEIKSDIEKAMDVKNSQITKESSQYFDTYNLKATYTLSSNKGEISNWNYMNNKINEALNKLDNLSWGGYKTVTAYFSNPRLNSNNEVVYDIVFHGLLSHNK
# T2 sequence (P08253 110-465 limits assumed): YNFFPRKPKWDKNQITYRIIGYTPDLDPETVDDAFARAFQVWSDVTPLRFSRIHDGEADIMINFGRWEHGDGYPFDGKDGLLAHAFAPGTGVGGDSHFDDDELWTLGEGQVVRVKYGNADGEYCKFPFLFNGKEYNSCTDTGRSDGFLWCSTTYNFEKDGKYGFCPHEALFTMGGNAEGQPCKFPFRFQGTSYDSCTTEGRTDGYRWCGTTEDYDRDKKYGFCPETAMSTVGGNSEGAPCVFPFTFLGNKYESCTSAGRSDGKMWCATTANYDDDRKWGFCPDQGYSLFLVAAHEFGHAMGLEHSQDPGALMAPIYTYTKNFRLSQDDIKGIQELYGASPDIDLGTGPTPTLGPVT
# Sequence of catalytic domain of MMP-7 (P09237 95-267): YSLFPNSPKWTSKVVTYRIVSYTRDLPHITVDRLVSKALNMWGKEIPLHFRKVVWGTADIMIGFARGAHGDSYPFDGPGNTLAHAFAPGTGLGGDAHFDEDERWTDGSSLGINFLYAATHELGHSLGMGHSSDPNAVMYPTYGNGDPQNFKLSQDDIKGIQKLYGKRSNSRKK
# Sequence of amine-coupled peptidase domain of ColH (ColH-PD) (Q46085 331-721 limits assumed): as the sequence (Q46085 331-721 limits assumed) above
compound,measurement,setting,value
COc1ccc2c(CC(=O)N[C@@H](C)C(=O)NCC(=O)N3CCC[C@H]3C(=O)N3CCC[C@H]3C(=O)NCC(=O)N3CCC[C@H]3C(=O)N[C@@H](CNc3ccc([N+](=O)[O-])cc3[N+](=O)[O-])C(=O)NCC(=O)N[C@@H](CCCNC(=N)N)C(N)=O)cc(=O)oc2c1 [Mca-Ala-Gly-Pro-Pro-Gly-Pro-Dpa-Gly-Arg-NH2] (Mca-AGPPGP[Dap](Dnp)GR-NH2),Km,ColH-PD [1],62 ± 8 µM
NC(=O)SCC(=O)Nc1ccccc1Cl [Compound 12],IC50,ColH-PD [2],31000 ± 7000 nM
same,half-life,physchem,20.6 ± 0.9 min
CC(=O)c1ccc(NC(=O)CS)cc1 [Compound 13],selectivity against MMPs,[3],similarly high selectivity against MMPs
same,reduction of viability (%),HEP G2 cells [4],17 ± 12%
same,lower activity toward LasB compared to ColH,LasB,more than 1000 fold
COC(=O)c1ccc(NC(=O)CSC(N)=O)cc1 [Compound 4],IC50,ColH-PD [2],44 ± 7 nM
O=C(CS)Nc1ccccc1Cl [Compound 15],IC50,ColH-PD [2],40000 ± 9000 nM
NC(=O)CCC(=O)Nc1ccccc1 [Compound 16],inhibitory activity toward ColH-PD,ColH-PD [5],devoid of any activity; also recorded: no inhibition
O=C(CS)Nc1ccc(Cl)cc1 [Compound 14],Kd,ColH-PD [6],360 ± 38 nM
same,N (stoichiometry),ColH-PD [6],0.48 ± 0.03
same,ΔG,ColH-PD [6],–8.8 ± 0.1 kcal mol^–1
same,ΔH,ColH-PD [6],–15.4 ± 0.3 kcal mol^–1
same,–TΔS,ColH-PD [6],6.6 ± 0.4 kcal mol^–1
same,IC50,ColH-PD [2],210 ± 10 nM
same,selectivity against MMPs,[3],similarly high selectivity against MMPs
same,reduction of viability (%),HEP G2 cells [4],28 ± 12%
CCOc1ccc(NC(=O)CSC(N)=O)cc1 [Compound 8],IC50,ColH-PD [2],190 ± 30 nM
NC(=O)SCC(=O)Nc1ccccc1 [Compound 1],IC50,ColH-PD [2],25000 ± 6000 nM
COc1cccc2c1C(=O)c1c(O)c3c(c(O)c1C2=O)C[C@@](O)(C(=O)CO)C[C@@H]3O[C@H]1C[C@H](N)[C@H](O)[C@H](C)O1 [doxorubicin],reduction of viability (%),HEP G2 cells [7]; 1 μM,50 ± 5%
CCN(CC)C(=S)SCC(=O)Nc1ccc(C(C)C)cc1 [Compound 19],Inhibition at 100 μM (%),ColH-PD [5],no inhibition
CCOc1ccc(NC(=O)CSC(=S)N(CC)CC)cc1 [Compound 17],Inhibition at 100 μM (%),ColH-PD [5],no inhibition
Cc1ccc(NC(=O)CSC(N)=O)cc1 [Compound 6],IC50,ColH-PD [2],120 ± 10 nM
same,decreased IC50 compared to compound 2,ColH-PD [5],16 fold
CC(=O)c1ccc(NC(=O)CSC(N)=O)cc1 [Compound 3],remaining activity at 100 µM,ColH-PD [2]; read-out: residual activity of ColH-PD,< 10%
same,inhibition at 100 µM,[8],25%
same,remaining activity at 100 µM,ColQ1-CU,≤ 5%
same,selectivity for ColH over MMPs,[3],more than 1000 fold
same,inhibition of the tested MMPs,[3],no or negligible inhibition
same,remaining activity at 100 µM,ColG-CU,≤ 5%
same,remaining activity at 100 µM,ColT-PD,≤ 5%
CO[C@H]1/C=C/O[C@@]2(C)Oc3c(C)c(O)c4c(O)c(c(/C=N/N5CCN(C)CC5)c(O)c4c3C2=O)NC(=O)/C(C)=C\C=C\[C@H](C)[C@H](O)[C@@H](C)[C@@H](O)[C@@H](C)[C@H](OC(C)=O)[C@@H]1C [rifampicin],reduction of viability (%),HEP G2 cells [7]; 100 μM,29 ± 5%
Cc1ccc(NC(=O)CSC(N)=O)cc1C [Compound 2],IC50,ColH-PD [2],1900 ± 300 nM
same,inhibition at 40 µM,ColH-PD [2]; read-out: inhibition of ColH-PD,82 ± 3%
"CNC(=O)[C@H](Cc1ccccc1)NC(=O)[C@H](CC(C)C)[C@H](CSc1cccs1)C(=O)NO [batimastat, reference compound]",inhibition of ColQ1-CU,ColQ1-CU,inhibited
same,IC50,"[3]; MMP-1, -2, -3, -7, -8, -14, read-out: IC50 values for all of these MMPs",< 10 nM
same,inhibition of ColG-CU,ColG-CU,inhibited
same,inhibition of ColT-PD,ColT-PD,inhibited
same,IC50,[9],7 ± 0.2 nM
same,reduction of viability (%),"HEP G2 cells [4]; 48 h, 100 μM",13 ± 7%
same,inhibition of ColH-PD,ColH-PD [5],inhibited
CCN(CC)C(=S)SCC(=O)Nc1ccc(Br)cc1 [Compound 18],Inhibition at 100 μM (%),ColH-PD [5],no inhibition
NC(=O)SCC(=O)Nc1cccc(Cl)c1 [Compound 9],IC50,ColH-PD [2],19000 ± 3000 nM
NC(=O)SCC(=O)Nc1cccc(F)c1 [Compound 10],IC50,ColH-PD [2],23000 ± 3000 nM
isoamylphosphonyl-Gly-Pro-Ala [reference compound],inhibition of ColH-PD,ColH-PD [5]; 40 µM,81 ± 1%
CCN(CC)C(=S)SCC(=O)Nc1ccc(F)cc1 [Compound 20],Inhibition at 100 μM (%),ColH-PD [5],no inhibition
COc1ccc(NC(=O)CSC(N)=O)cc1 [Compound 5],IC50,ColH-PD [2],71 ± 9 nM
N-(3-[2-furyl]acryloyl)-L-leucyl-glycyl-L-prolyl-L-alanine [FALGPA],MW-normalized SPR response,[10],35 μ-refractive index units
CCN(CC)C(=S)SCC(=O)Nc1ccc(C(C)=O)cc1 [Compound 21],hydrolysis to the corresponding free thiol 13,[11],no hydrolysis
same,inhibition at 100 µM,ColH-PD [2]; read-out: Inhibition at 100 μM (%),12 ± 3%
NC(=O)SCC(=O)Nc1ccc(Cl)cc1 [Compound 7],Kd,ColH-PD [6],309 ± 45 nM
same,N (stoichiometry),ColH-PD [6],0.54 ± 0.05
same,ΔG,ColH-PD [6],–8.9 ± 0.1 kcal mol^–1
same,ΔH,ColH-PD [6],–12.7 ± 1.2 kcal mol^–1
same,–TΔS,ColH-PD [6],3.8 ± 1.3 kcal mol^–1
same,IC50,ColH-PD [2],190 ± 20 nM
same,remaining activity at 100 µM,ColQ1-CU,≤ 5%
same,selectivity for ColH over MMPs,[3],more than 1000 fold
same,inhibition of the tested MMPs,[3],no or negligible inhibition
same,half-life,physchem,26.8 ± 1.4 min
same,remaining activity at 100 µM,ColG-CU,≤ 5%
same,remaining activity at 100 µM,ColT-PD,≤ 5%
same,decrease in IC50 compared to meta-chloro-substituted counterpart 9,ColH-PD [5],100 fold
